# Like-named read-outs stand apart in the source and are kept apart here.
# Columns and labels:
# [1] = test system: ribosomal S6 protein and MDM2; experiment: Immunoblot of ribosomal S6 protein and MDM2 phosphorylation (mTORC1/p70S6K signaling); assay type: cell-based, human
# Experimental: (§1) Cell culture experiments utilizing NRTIs were of the following design. Cultures of either human lung or cardiac fibroblasts were cultivated according to standard culture protocols for these cells (Cristofalo, et al., Journal of Tissue Culture Methods 1980, 6:117-121). Parallel sets of cultures were maintained in normal growth media or in normal growth media with the addition of 1 nM rapamycin. Cultures were maintained with 1 nM rapamycin (Enzo Biologicals) for two weeks before exposure to NRTIs. Cell cultures were exposed to NRTIs at indicated concentrations in individual experiments (generally 10-20 μg/ml) for 7 days, with a change of media and fresh NRTIs at day 4. Mitochondrial measurements, bioanalyzer measurements, immunoblotting for protein expression and phosphorylation status, and assays for senescence were performed at the end of this 7-day period.
# (§2) Cell culture reagents were from Cellgro, unless indicated. WI-38 fetal-lung primary human fibroblasts or human cardiac fibroblasts were grown in MEM supplemented with 10% fetal bovine serum, 1% L-glutamine, MEM vitamins, and MEM non-essential amino acids. Cells were maintained in a 37° C. in 5% CO2 incubator. For treatment studies, cells were treated with 1 nM rapamycin (Enzo Biologicals) for two weeks before treatment with NRTIs. Cells were maintained by trypsinization and reseeding at a cell density of 1×10^4/cm^2 every 7 to 10 days. Emtricitabine (FTC) and tenofovir disoproxil fumarate (TDF) were kindly provided by the NIH AIDS Research & Reference Reagent program. During the 7-day exposure to the NRTIs, the pharmacologic inhibitors PD98059 (10 μM, Santa Cruz Biotechnologies), BI-D1870, GW5074, and SB203580 (10 μM, Enzo Biologicals) were added to the culture medium either during the final 48 hours or for the final 2 hours depending upon the experiment. During the 7-day exposure to NRTIs, Trolox (500 μM) and N-acetylcysteine (100 μM, Acros Organics) were added every other day. Mito-Q (20 nM) and TPP (20 nM) were kindly provided by Dr. Brett Kaufmann at the University of Pennsylvania School of Veterinary Medicine. Vector and mt-catalase adenoviruses (MOI's 25, 50, and 75) were purchased from Gene Transfer Vector Core from the University of Iowa.
# Cell protein extracts were prepared by extracting with radioimmunoprecipitation assay (RIPA) buffer containing a protease inhibitor cocktail (Sigma-Aldrich) and phosphatase inhibitors, NaF and sodium orthovanadate. Protein concentration was quantified using a bicinchoninic acid (BCA) assay (Pierce Biotechnology). Western blot analysis was performed using 15 to 30 μg of protein extracts that were run on SDS-PAGE and transferred onto nitrocellulose (Biorad) membranes. Blots were incubated with antibodies specific for: beta-actin (Sigma-Aldrich), TFAm, parkin, p16, phospho(S82)HSP27, HSP27 (Santa Cruz Biotechnologies), p53, 21, catalase, MDM2 (EMD Millipore), VDAC, phospho(S235/236)-ribosomal protein S6, ribosomal protein S6, phospho(S166)-MDM2, phospho(5473)-AKT, AKT, beta-tubulin (Cell Signaling), p62 (Enzo Biologicals), IL-6 (NeoBiolab), lamin B1, PINK1, and Mitoprofile Total OXPHOS Cocktail (complex I-NDUFB8 subunit, CII-SDHB subunit, […]2 subunit, and CIV-mitochondrial COX1 subunit) (Abcam) according to manufacturers' instructions. Western blots were visualized using IRDye 680 and 800 LI-COR secondary antibodies on a LI-COR Odyssey using LI-COR Odyssey software version 3.0 (LI-COR Biosciences). For co-immunoprecipitation, cell protein extracts were prepared in HNTG buffer containing a protease inhibitor cocktail and quantified using BCA assay. Protein extracts at the concentration of 0.5 mg were pre-cleared with protein A/G beads (Santa Cruz Biologicals) for 30 minutes. After centrifugation at 2,000 rpm for 5 minutes at 4° C., the supernatant was incubated with the primary antibody at manufacturer's recommended concentration overnight at 4° C. An IgG antibody (Cell Signaling) was used as a non-specific control.
# [2] = test system: human cardiac fibroblasts; experiment: Mitochondrial respiration, Seahorse XF24 Bioanalyzer; assay type: cell-based; conditions: mito-Q during NRTI exposure
# Experimental: Cell culture experiments utilizing NRTIs were of the following design. Cultures of either human lung or cardiac fibroblasts were cultivated according to standard culture protocols for these cells (Cristofalo, et al., Journal of Tissue Culture Methods 1980, 6:117-121). Parallel sets of cultures were maintained in normal growth media or in normal growth media with the addition of 1 nM rapamycin. Cultures were maintained with 1 nM rapamycin (Enzo Biologicals) for two weeks before exposure to NRTIs. […] Mitochondrial measurements, bioanalyzer measurements, immunoblotting for protein expression and phosphorylation status, and assays for senescence were performed at the end of this 7-day period. Mitochondrial function was measured using the XF cell mito stress test kit on a Seahorse XF24 Bioanalyzer (Seahorse Bioscience). Cells were seeded at a density of 15,000 cells per well in an XF24 microplate. Following acquisition, results were normalized based upon 10^6 cells counted using a Guava EasyCyte Mini (Millipore), where applicable. […] Respiration rates and proton leak were assessed as outlined in published methods (Hill, et al., Biological chemistry 2012, 393:1485-1512). Mitochondrial respiration was calculated based upon oxygen consumption rate measurements in triplicates from cells seeded in at least quadruplicates. Basal respiration represents the initial oxygen consumption rate measurements and maximal respiration represents the oxygen consumption rate measurements following FCCP addition. ATP-linked respiration is represented as the oligomycin-sensitive oxygen change to basal oxygen consumption rate. Proton leak represents the oligmycin insensitive oxygen consumption rate. […] All data was normalized to cell number by counting cells in each well at the completion of the mitochondrial assessments.
# [3] = test system: human cardiac fibroblasts; experiment: Immunoblot of senescence markers (p53, p21, p16, lamin B1, IL-6); assay type: cell-based; conditions: ROS-reducing intervention during NRTI exposure, no rapamycin
# Experimental: as §1, §2
# Cell protein extracts were prepared by extracting with radioimmunoprecipitation assay (RIPA) buffer containing a protease inhibitor cocktail (Sigma-Aldrich) and phosphatase inhibitors, NaF and sodium orthovanadate. Protein concentration was quantified using a bicinchoninic acid (BCA) assay (Pierce Biotechnology). […] For co-immunoprecipitation, cell protein extracts were prepared in HNTG buffer containing a protease inhibitor cocktail and quantified using BCA assay. […]
# [4] = test system: human cardiac fibroblasts; experiment: Mitochondrial membrane potential, mass, superoxide and total ROS by flow cytometry; assay type: cell-based; conditions: control cultures (no rapamycin) treated with scavenger during NRTI exposure
# Experimental: as §1, §2
# Mitochondrial membrane potential was detected by incubating cells with 25 nM TMRE (Molecular Probes). Mitochondrial mass was evaluated by incubating the cells with 100 nM Mitotracker Green FM (Molecular Probes). Mitochondrial superoxide anion levels were detected by incubating the cells with 5 μM MitoSox Red (Molecular Probes). Total cellular levels of ROS were detected by incubating the cells with 10 μM 2′,7′-dichlorofluoroscein diacetate (DCF-DA; Sigma-Aldrich) in 1% fetal bovine serumsupplemented MEM and washing twice with Krebs Ringer phosphate glucose buffer (145 mM NaCl, 5.7 mM NaH2PO4, 4.86 mM KCL, 0.54 mM CaCl2), 1.22 mM MgSO4, and 5.5 mM glucose) following the incubation period. For the aforementioned assessments, incubation was performed at 37° C. in 5% CO2 for 30 minutes and cells were harvested in 2.5% trypsin-EDTA with serum-containing medium. Cells were immediately analyzed with a Guava EasyCyte Mini employing the Guava Express Plus program (Guava Technologies).
# [5] = test system: human cardiac fibroblasts; experiment: Senescence-associated beta-galactosidase detection; assay type: cell-based; conditions: ROS-reducing intervention during NRTI exposure, no rapamycin
# Experimental: as §1
# Assessment of SA-β-gal activity was performed by plating cells following respective treatments at low density (0.5×10^4/cm^2) to prevent false positive staining known to occur in high density cultures. […] Following incubation, cells were washed three times with PBS and at least 500 cells were counted for each sample in triplicates. Positive cells (blue cells) were expressed as a percentage of total cells.
# [6] = test system: ribosomal S6 protein and MDM2; experiment: Immunoblot of ribosomal S6 protein and MDM2 phosphorylation (mTORC1/p70S6K signaling); assay type: cell-based, human; remark: listed apart in the source
# human fibroblasts = experiment: Ethidium bromide mitochondrial stress in human fibroblasts; conditions: exposure to ethidium bromide
# Description: Human fibroblasts were exposed to ethidium bromide for 7 days and cell viability measured at that time.
# [7] = agent added to NRTI-exposed cardiac fibroblasts
# [8] = serum-free 48 hours, exposure 2 hours, 1 to 400 μM
# [9] = replicative senescent cardiac fibroblasts
smiles,measurement,setting,value
C[S+]([O-])c1ccc(-c2nc(-c3ccncc3)c(-c3ccc(F)cc3)[nH]2)cc1 (stereo not drawn) [SB-203580],MDM2 phosphorylation in cells exposed to NRTIs,[1],no effect
same,ribosomal S6 phosphorylation in cells exposed to NRTIs,[1],no effect
COc1cc(C(C)=O)ccc1O [apocyanin],ribosomal S6 phosphorylation in cells exposed to NRTIs,[1]; [7],did not prevent the increase
COC1=C(OC)C(=O)C(CCCCCCCCCC[P+](c2ccccc2)(c2ccccc2)c2ccccc2)=C(C)C1=O [Mito-Q],"NRTI-induced increase in basal respiration, ATP-linked respiration and proton leak",[2],partially alleviated
same,maximal respiration,[2],less affected
same,"increase in senescence-associated proteins (p53, p21, p16) following NRTI exposure",[3],ameliorated
same,mitochondrial ROS following exposure to NRTIs,[4],ameliorated
same,mitochondrial ROS following exposure to NRTIs,[4]; listed as mito-Q,lower level
same,percentage of cells positive for SA-β-gal staining,[5],reduced
same,MDM2 phosphorylation in cells exposed to NRTIs,[1]; [7],reduced
same,ribosomal S6 phosphorylation in cells exposed to NRTIs,[1]; [7],reduced
OO [hydrogen peroxide],ribosomal S6 and MDM2 phosphorylation at the lower concentrations,"[6]; serum-free 48 hours, exposure 2 hours",increased
same,concentration of maximal activation of ribosomal S6 and MDM2 phosphorylation,[6]; [8],50 µM
same,concentrations at which ribosomal S6 and MDM2 phosphorylation are inhibited,[6]; [8],above 100 μM
CCc1cncnc1N1CCN(Cc2nc3ccc(C(F)(F)F)cc3[nH]2)CC1 [PF-4708671],MDM2 phosphorylation in cells exposed to NRTIs,[1]; [7],inhibited
same,ribosomal S6 phosphorylation in cells exposed to NRTIs,[1]; [7],inhibited
CC(C)CCN1c2nc(Nc3cc(F)c(O)c(F)c3)ncc2N(C)C(=O)C1C (stereo not drawn) [BI-D1870],phosphorylated MDM2 in senescent fibroblasts,[6]; [9],reduced
same,ribosomal S6 phosphorylation in senescent fibroblasts,[6]; [9],reduced
same,ribosomal S6 phosphorylation in cells exposed to NRTIs,[1]; [7],greatest impact
CC[n+]1c(-c2ccccc2)c2cc(N)ccc2c2ccc(N)cc21 [ethidium bromide],mitochondrial network,human fibroblasts,destroyed
C=C(C)[C@H]1Cc2c(ccc3c2O[C@@H]2COc4cc(OC)c(OC)cc4[C@@H]2C3=O)O1 [rotenone],concentration of sharp inhibition of S6 phosphorylation,"[6]; serum deprived cardiac fibroblasts, 16 hours",50 nM
same,S6 phosphorylation at nanomolar concentrations,"[6]; serum deprived cardiac fibroblasts, 16 hours, 1 to 50 nM",increased
O=C1Nc2ccc(I)cc2/C1=C/c1cc(Br)c(O)c(Br)c1 [GW5047],ribosomal S6 phosphorylation in cells exposed to NRTIs,[1]; [7],some decrease
N#CC(=C(/N)Sc1ccccc1N)/C(C#N)=C(\N)Sc1ccccc1N [U0126],ribosomal S6 phosphorylation in cells exposed to NRTIs,[6],some decrease

# — patent publication US12714698B2, “Compositions and methods for treating or preventing dermal disorders” (Drexel University, priority 2015, dated 2026)
